Series [1] has as its target T1, human amylin 3(a) receptor (human calcitonin receptor + RAMP-3) in BHK570 cells (Homo sapiens, UniProt O60896+P30988).
T1 construct: expressed in transfected cells
Kind of series: ASSAY (II)a functional assay, human amylin receptor (CRE luciferase). It is filed as cell-based. The essentials:
(§1)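 BHK CRE-luc cells, calcitonin (a) receptor ± RAMP-3 (amylin 3(a)); overnight seeding, 37° C/5% CO2. 3 h ligand exposure, DMEM/10% FBS/10 mM Hepes pH 7.4. LucLite 30 min RT; luminescence (SPC).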

The subject of a further series is Male Sprague-Dawley rats. Kind of series: ASSAY (XI) single subcutaneous administration, food intake monitored for 48 hours in rats. Conditions: for Food intake red (%) 0-24 h / Food intake red (%) 24-48 h: single s.c., compared to vehicle. Type of series: in vivo, rat. From the text:
Assay (XI)—Effect from Single Subcutaneous Administration of Analogue on Plasma Calcium in Rats
Male Sprague-Dawley rats (Taconic Europe, ˜250 g at test date) were acclimatized to reversed day light cycle (lights on from 10 PM to 10 AM) and single housing in online food intake monitoring system (Ellegaard MBRose, Denmark) prior to study start. […] Data are illustrated in graphs as mean±SEM.

For the next series, the system named is Male Wistar rats. The series is described as follows: ASSAY (XII) effect from single subcutaneous administration on plasma calcium in rats. Type of series: in vivo, rat. The following applies: for Plasma calcium red (%) 0-12 h (maximal): single s.c., 30 nmol/kg, compared to vehicle; for suppression of plasma calcium level relative to vehicle: single subcutaneous 30 nmol/kg, monitored over 24 hours. How it is done:
Assay (XII)—Effect from Single Subcutaneous Administration of Analogue on Plasma Calcium in Rats
Male Wistar rats (Taconic Europe, ˜250 g at test date) were acclimatized to handling prior to the study. Rats were divided in groups of five and subcutaneously dosed with test compound at time=0. At time T=−15 min; 1 h, 2 h, 4 h, 7 h, 12 h, and 24 h a blood sample was obtained and heparin stabilized plasma was analysed for total calcium (Cobas, Hitachi). Data are illustrated in graphs as mean±SEM.

Series [2] concerns the target T2, human calcitonin (a) receptor in BHK570 cells (Homo sapiens, UniProt P30988).
T2 construct: expressed in transfected cells
T2 sequence (P30988 25-474): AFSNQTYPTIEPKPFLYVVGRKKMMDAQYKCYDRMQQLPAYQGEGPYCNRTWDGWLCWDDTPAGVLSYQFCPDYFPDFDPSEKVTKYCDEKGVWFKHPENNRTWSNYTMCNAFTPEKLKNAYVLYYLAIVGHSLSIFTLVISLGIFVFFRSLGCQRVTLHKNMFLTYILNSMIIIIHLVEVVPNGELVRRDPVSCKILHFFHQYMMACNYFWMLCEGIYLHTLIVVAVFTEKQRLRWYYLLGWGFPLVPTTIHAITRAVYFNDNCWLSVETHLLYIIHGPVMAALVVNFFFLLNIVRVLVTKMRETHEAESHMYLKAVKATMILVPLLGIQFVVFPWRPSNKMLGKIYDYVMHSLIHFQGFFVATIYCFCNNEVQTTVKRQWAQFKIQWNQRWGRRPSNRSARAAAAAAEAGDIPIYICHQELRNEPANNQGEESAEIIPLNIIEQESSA
The series is described as follows: ASSAY (II)a functional assay, human calcitonin receptor (CRE luciferase). It is filed as cell-based. Conditions: read-out: hCTR funct. EC50. The essentials: as §1

For series [3], the target named is T3, human calcitonin receptor (Homo sapiens, UniProt P30988).
T3 construct: expressed in transfected cells
T3 sequence (P30988 25-474): T2 sequence (P30988 25-474)
The series is described as follows: ASSAY (VII) binding to the human calcitonin receptor (SPA, 125I-Calcitonin).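 Also: cell membranes (35 ng/µL) combined with SPA beads in 40 µL of pH 7.4 Hepes buffer, 384-well format, signal counted on a TopCounter instrument.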 The following applies: read-out: hCTR bind IC50.
Method: Membranes were prepared in the following way; the cells were rinsed with PBS and incubated with Versene for approximately 5 min before harvesting. The cells were flushed with PBS and the cell-suspension was centrifuged for 5 min at 1000 rpm. […] The resulting pellet was resuspended in buffer 2 and protein concentration was measured (BCA protein Assay, Pierce). The homogenate was kept cold during the whole procedure. The membranes were kept at −80° C. until use. Assay was performed in a 384 well Optiplate (PerkinElmer) in a total volume of 40 ul. Membranes were mixed with SPA beads. Final concentration of membranes 35 ng/μL final and Final concentration of SPA beads was 0.05 mg/well. Test-compounds were dissolved in DMSO and further diluted in assay buffer (50 mM Hepes, pH 7.4, 1 mM CaCl2, 5 mM MgCl2, 0.1% OA and 0.02% Tween20). […] Samples were analyzed on TopCounter™ (Packard).

The mark [4] stands for this setting: hCTR funct. EC50 divided by hAmylin-R funct. EC50.
Where [5] appears, read: hCTR funct. EC50 over hAmylin-R funct. EC50.
The mark [6] stands for this setting: human functional selectivity: hCTR funct. EC50 / hAmylin-R funct. EC50.

Numbered stars: 1 amine (or outer) side, 2 acyl side, 3 side chain; on linkers, the order of the positions; unused ones are H or OH. Bridge positions count the residues as written; N and C are the ends. Side chains are listed from the residue outwards. Peptide text beside a SMILES is read from it. * marks the point of attachment. C20 diacid = O=C(O)CCCCCCCCCCCCCCCCCCC(=O)*; γGlu = O=C(O)[C@H](CCC(=O)[*:2])N[*:1]; AEEA = NCCOCCOCC(=O)O

T1 sequence (O60896 24-148, one chain of several): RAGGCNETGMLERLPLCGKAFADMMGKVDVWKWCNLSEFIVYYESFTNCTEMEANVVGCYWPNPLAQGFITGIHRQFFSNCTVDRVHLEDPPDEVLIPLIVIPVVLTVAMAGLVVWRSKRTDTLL

`CC[C@H](C)[C@H](NC(=O)[C@H](C)NC(=O)CNC(=O)[C@H](Cc1ccccc1)NC(=O)[C@H](CC(N)=O)NC(=O)[C@@H]1CCCN1C(=O)[C@H](CO)NC(=O)[C@H](CO)NC(=O)[C@H](Cc1c[nH]cn1)NC(=O)[C@H](CCCNC(=N)N)NC(=O)[C@H](CC(C)C)NC(=O)[C@H](Cc1ccccc1)NC(=O)[C@H](CCC(=O)O)NC(=O)[C@H](C)NC(=O)[C@H](CC(C)C)NC(=O)[C@H](CCCNC(=N)N)NC(=O)[C@H](CCC(N)=O)NC(=O)[C@@H](NC(=O)[C@H](C)NC(=O)[C@@H]1CSSC[C@H](NC(=O)[C@@H](N)CCCCNC(=O)CC[C@H](NC(=O)CCCCCCCCCCCCCCCCCCC(=O)O)C(=O)O)C(=O)N[C@@H](CC(N)=O)C(=O)N[C@@H]([C@@H](C)O)C(=O)N[C@@H](C)C(=O)N[C@@H]([C@@H](C)O)C(=O)N1)[C@@H](C)O)C(=O)N1CCC[C@H]1C(=O)N[C@@H](CO)C(=O)N[C@@H](CO)C(=O)N[C@H](C(=O)N[C@@H](CC(N)=O)C(=O)N[C@H](C(=O)NCC(=O)N1CCC[C@H]1C(=O)N[C@@H](Cc1c[nH]cn1)C(=O)N[C@H](C(=O)N[C@@H](Cc1ccc(O)cc1)C(N)=O)[C@@H](C)O)C(C)C)[C@@H](C)O` [Example 118] (H-K([γGlu-C20 diacid])CNTATCATQRLAEFLRHSSPNFGAIPSSTNVGPHTY-NH2; disulfide 2-7): the “Ratio hCT/hAmylin funct.” value in series [1] (setting [4]), in series [1] (setting [5]) and in series [1] (setting [6]) was 14.4 in each case. For the same compound, the “Food intake red (%) 0-24 h” value is listed as 43% in the series on Male Sprague-Dawley rats (3 nmol/kg) and 77% in the series with Male Sprague-Dawley rats (30 nmol/kg). Further, the “Food intake red (%) 24-48 h” value with Male Sprague-Dawley rats (3 nmol/kg) stood at 1%; in the series on Male Sprague-Dawley rats (30 nmol/kg), 30%. In the series on Male Wistar rats, the “Plasma calcium red (%) 0-12 h (maximal)” value was determined as 26%.
Take `CC[C@H](C)[C@H](NC(=O)[C@H](C)NC(=O)CNC(=O)[C@H](Cc1ccccc1)NC(=O)[C@H](CC(N)=O)NC(=O)[C@@H]1CCCN1C(=O)[C@H](CO)NC(=O)[C@H](CO)NC(=O)[C@H](Cc1c[nH]cn1)NC(=O)[C@H](CCCNC(=N)N)NC(=O)[C@H](CC(C)C)NC(=O)[C@H](Cc1ccccc1)NC(=O)[C@H](CCC(=O)O)NC(=O)[C@H](C)NC(=O)[C@H](CC(C)C)NC(=O)[C@H](CCCNC(=N)N)NC(=O)[C@H](CCC(N)=O)NC(=O)[C@@H](NC(=O)[C@H](C)NC(=O)[C@@H]1CSSC[C@H](NC(=O)[C@@H](N)CCCCNC(=O)CC[C@H](NC(=O)CCCCCCCCCCCCCCCCCCC(=O)O)C(=O)O)C(=O)N[C@@H](CC(N)=O)C(=O)N[C@@H]([C@@H](C)O)C(=O)N[C@@H](C)C(=O)N[C@@H]([C@@H](C)O)C(=O)N1)[C@@H](C)O)C(=O)N1CCC[C@H]1C(=O)N[C@@H](CO)C(=O)N[C@@H](CO)C(=O)N[C@H](C(=O)N[C@@H](CC(N)=O)C(=O)N[C@H](C(=O)NCC(=O)N[C@@H](CO)C(=O)N[C@@H](CCCNC(=N)N)C(=O)N[C@H](C(=O)N[C@@H](Cc1ccc(O)cc1)C(N)=O)[C@@H](C)O)C(C)C)[C@@H](C)O` [Example 51] (H-K([γGlu-C20 diacid])CNTATCATQRLAEFLRHSSPNFGAIPSSTNVGSRTY-NH2; disulfide 2-7 (inferred); N-terminus assumed): the “Ratio hCT/hAmylin funct.” value in series [1] (setting [4]), in series [1] (setting [5]) and in series [1] (setting [6]) was 14.0 throughout. Further, the “Food intake red (%) 0-24 h” value in the series with Male Sprague-Dawley rats (30 nmol/kg) was 52%. Besides, the “Food intake red (%) 24-48 h” value in the series on Male Sprague-Dawley rats (30 nmol/kg) is 30%. Moreover, the “Plasma calcium red (%) 0-12 h (maximal)” value with Male Wistar rats was 10%. In addition, in the series on Male Wistar rats, the “suppression of plasma calcium level relative to vehicle” value was “None of the example compounds at 30 nmol/kg trigger a notable suppression of the calcium level”.
Turning to `CC[C@H](C)[C@H](NC(=O)[C@H](C)NC(=O)CNC(=O)[C@H](Cc1ccccc1)NC(=O)[C@H](CC(N)=O)NC(=O)[C@@H]1CCCN1C(=O)[C@H](CO)NC(=O)[C@H](CO)NC(=O)[C@H](Cc1c[nH]cn1)NC(=O)[C@H](CCCNC(=N)N)NC(=O)[C@H](CC(C)C)NC(=O)[C@H](Cc1ccccc1)NC(=O)[C@H](CCC(=O)O)NC(=O)[C@H](C)NC(=O)[C@H](CC(C)C)NC(=O)[C@H](CCCNC(=N)N)NC(=O)[C@H](CCC(N)=O)NC(=O)[C@@H](NC(=O)[C@H](C)NC(=O)[C@@H]1CSSC[C@H](NC(=O)[C@@H](N)CCCCNC(=O)CC[C@H](NC(=O)CCCCCCCCCCCCCCCCCCC(=O)O)C(=O)O)C(=O)N[C@@H](CC(N)=O)C(=O)N[C@@H]([C@@H](C)O)C(=O)N[C@@H](C)C(=O)N[C@@H]([C@@H](C)O)C(=O)N1)[C@@H](C)O)C(=O)N1CCC[C@H]1C(=O)N[C@@H](CO)C(=O)N[C@@H](CO)C(=O)N[C@H](C(=O)N[C@@H](CC(N)=O)C(=O)N[C@H](C(=O)NCC(=O)N1CCC[C@H]1C(=O)N[C@@H](CCCNC(=N)N)C(=O)N[C@H](C(=O)N[C@@H](Cc1ccc(O)cc1)C(N)=O)[C@@H](C)O)C(C)C)[C@@H](C)O` [Example 117] (H-K([γGlu-C20 diacid])CNTATCATQRLAEFLRHSSPNFGAIPSSTNVGPRTY-NH2; disulfide 2-7; N-terminus assumed), the “Ratio hCT/hAmylin funct.” value in series [1] (setting [4]), in series [1] (setting [5]) and in series [1] (setting [6]) was 17.0 each time. Besides, in the series with Male Sprague-Dawley rats (30 nmol/kg), the “Food intake red (%) 0-24 h” value turned out to be 61%. In the series with Male Sprague-Dawley rats (30 nmol/kg), the “Food intake red (%) 24-48 h” value is given as 4%. Moreover, the “food intake monitored over 48 hours” value in the series with Male Sprague-Dawley rats (single subcutaneous administration, 30 nmol/kg, versus vehicle) is listed as “reduces food intake”. The “Plasma calcium red (%) 0-12 h (maximal)” value with Male Wistar rats was found to be 9%. Further, in the series on Male Wistar rats, the “suppression of plasma calcium level relative to vehicle” value is “None of the example compounds at 30 nmol/kg trigger a notable suppression of the calcium level”.
For `CC[C@H](C)[C@H](NC(=O)[C@H](C)NC(=O)CNC(=O)[C@H](Cc1ccccc1)NC(=O)[C@H](CC(N)=O)NC(=O)[C@@H]1CCCN1C(=O)[C@H](CO)NC(=O)[C@H](CO)NC(=O)[C@H](Cc1c[nH]cn1)NC(=O)[C@H](CCCNC(=N)N)NC(=O)[C@H](CC(C)C)NC(=O)[C@H](Cc1ccccc1)NC(=O)[C@H](CC(N)=O)NC(=O)[C@H](C)NC(=O)[C@H](CC(C)C)NC(=O)[C@H](CCCNC(=N)N)NC(=O)[C@H](CCC(N)=O)NC(=O)[C@@H](NC(=O)[C@H](C)NC(=O)[C@@H]1CSSC[C@H](NC(=O)[C@@H](N)CCCCNC(=O)COCCOCCNC(=O)COCCOCCNC(=O)CC[C@H](NC(=O)CCCCCCCCCCCCCCCCCCC(=O)O)C(=O)O)C(=O)N[C@@H](CC(N)=O)C(=O)N[C@@H]([C@@H](C)O)C(=O)N[C@@H](C)C(=O)N[C@@H]([C@@H](C)O)C(=O)N1)[C@@H](C)O)C(=O)N1CCC[C@H]1C(=O)N[C@@H](CO)C(=O)N[C@@H](CO)C(=O)N[C@H](C(=O)N[C@@H](CC(N)=O)C(=O)N[C@H](C(=O)NCC(=O)N[C@@H](CCCNC(=N)N)C(=O)N[C@@H](CC(N)=O)C(=O)N[C@H](C(=O)N[C@@H](Cc1ccc(O)cc1)C(N)=O)[C@@H](C)O)C(C)C)[C@@H](C)O` [Example 95] (H-K([AEEA-AEEA-γGlu-C20 diacid])CNTATCATQRLANFLRHSSPNFGAIPSSTNVGRNTY-NH2; disulfide 2-7 (inferred); N-terminus assumed), the “Ratio hCT/hAmylin funct.” value in series [1] (setting [4]), in series [1] (setting [5]) and in series [1] (setting [6]) was 33.0 in each case. For the same compound, the EC50 in series [1] (human amylin receptor functional potency, assay (II), read-out: hAmylin-R funct. EC50) is 0.651 nM; in series [2] it was 21.5 nM. The IC50 in series [3] was 61.3 nM.

The values are drawn from US9023789B2, “Amylin analogs and pharmaceutical compositions thereof” (Novo Nordisk A/S, priority 2012, dated 2015).
